In brackets after ≈: the same amount, converted by molar mass.
Legend:
Assay type in all cases: cell-based
[1] = tested on: Bacillus subtilis ATCC 6633; assay: MIC, two-fold dilution method, Bacillus subtilis ATCC 6633; conditions: 10^6 CFU per ml, 37° C., 18 to 20 hours; for MIC: ATCC6633, Muller Hinton Broth, read-out: Antibacterial Activity (MIC); for Antibacterial Activity (MIC): Muller Hinton Broth
Procedure, shortened: (§1)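 First, compound is diluted two-fold serially into Mueller Hinton Broth; next, test strain at 10^6 CFU/ml is added; finally, incubation runs 18–20 h at 37° C. before MIC determination.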

[2] = tested on: Staphylococcus aureus ATCC 65389; assay: MIC, two-fold dilution method, Staphylococcus aureus ATCC 65389; conditions: 10^6 CFU per ml, 37° C., 18 to 20 hours; for MIC: ATCC65389, Muller Hinton Broth, read-out: Antibacterial Activity (MIC); for Antibacterial Activity (MIC): Muller Hinton Broth
Procedure, shortened: as §1

[3] = tested on: Staphylococcus epidermidis ATCC 12228; assay: MIC, two-fold dilution method, Staphylococcus epidermidis ATCC 12228; conditions: 10^6 CFU per ml, 37° C., 18 to 20 hours; for MIC: ATCC12228, Muller Hinton Broth, read-out: Antibacterial Activity (MIC); for Antibacterial Activity (MIC): Muller Hinton Broth
Procedure, shortened: as §1

[4] = tested on: Streptococcus faecalis ATCC 10541; assay: MIC, two-fold dilution method, Streptococcus faecalis ATCC 10541; conditions: 10^6 CFU per ml, 37° C., 18 to 20 hours; for MIC: Enterococcus faecalis, ATCC10541, Muller Hinton Broth, read-out: Antibacterial Activity (MIC); for Antibacterial Activity (MIC): Muller Hinton Broth
Procedure, shortened: as §1

[5] = tested on: Pseudomonas aeurginosa NCTC 10490; assay: MIC, two-fold dilution method, Pseudomonas aeurginosa NCTC 10490; conditions: 10^6 CFU per ml, 37° C., 18 to 20 hours; for MIC: NCTC10490, Muller Hinton Broth, read-out: Antibacterial Activity (MIC); for Antibacterial Activity (MIC): Muller Hinton Broth
Procedure, shortened: as §1

[6] = tested on: Esherichia coli ATCC 25922; assay: MIC, two-fold dilution method, Esherichia coli ATCC 25922; conditions: Muller Hinton Broth, 10^6 CFU per ml, 37° C., 18 to 20 hours; for MIC: read-out: Antibacterial Activity (MIC)
Procedure, shortened: as §1

[7] = tested on: Klebsiella pneumoniae ATCC 10031; assay: MIC, two-fold dilution method, Klebsiella pneumoniae ATCC 10031; conditions: 10^6 CFU per ml, 37° C., 18 to 20 hours; for MIC: ATCC10031, Muller Hinton Broth, read-out: Antibacterial Activity (MIC); for Antibacterial Activity (MIC): Muller Hinton Broth
Procedure, shortened: as §1

SMILES	MIC [1] [µg/mL]	MIC [2] [µg/mL]	MIC [3] [µg/mL]	MIC [4] [µg/mL]	MIC [5] [µg/mL]	MIC [6] [µg/mL]	MIC [7] [µg/mL]	Antibacterial Activity (MIC) [1] [µg/mL]	Antibacterial Activity (MIC) [2] [µg/mL]	Antibacterial Activity (MIC) [3] [µg/mL]	Antibacterial Activity (MIC) [4] [µg/mL]	Antibacterial Activity (MIC) [5] [µg/mL]	Antibacterial Activity (MIC) [6] [µg/mL]	Antibacterial Activity (MIC) [7] [µg/mL]
CCN1CCN(c2cc3c(cc2F)c(SCC2=C(C(=O)[O-])N4C(=O)C(NC(=O)/C(=N\OC)c5csc(N)n5)C4SC2)cc[n+]3CC)CC1 (stereo not drawn) [Compound I-11, 7-[(Z)-2-(2-aminothiazol-4-yl)-2-(methoxyimino)acetamido]-3-[1-ethyl-6-fluoro-7-(1-ethylpiperazinyl)quinolinium-4-yl]thiomethyl-3-cephem-4-carboxylat]	0.1 (≈ 0.14 µM)	0.1 (≈ 0.14 µM)	0.2 (≈ 0.28 µM)	0.05 (≈ 0.0699 µM)	1.56 (≈ 2.18 µM)	1.56 (≈ 2.18 µM)	0.39 (≈ 0.546 µM)	–	–	–	–	–	–	–
C#CCO/N=C(\C(=O)NC1C(=O)N2C(C(=O)[O-])=C(CSc3cc[n+](C4CC4)c4cc(N5CCN(CC)CC5)c(F)cc34)CSC12)c1csc(N)n1 (stereo not drawn) [Compound I-43]	0.1 (≈ 0.133 µM)	0.1 (≈ 0.133 µM)	0.1 (≈ 0.133 µM)	0.05 (≈ 0.0666 µM)	0.78 (≈ 1.04 µM)	1.56 (≈ 2.08 µM)	0.78 (≈ 1.04 µM)	–	–	–	–	–	–	–
C=CC[n+]1ccc(SCC2=C(C(=O)[O-])N3C(=O)C(NC(=O)/C(=N\OC)c4csc(N)n4)C3SC2)c2cc(F)c(N3CCN(C)CC3)cc21 (stereo not drawn) [Compound I-14, 7-[(Z)-2-(2-aminothiazol-4-yl)-2-(methoxyimino)acetamido]-3-[1-allyl-6-fluoro-7-(N-methylpiperazinyl)quinolinium-4-yl]thiomethyl-3-cephem-4-carboxylate]	0.1 (≈ 0.14 µM)	0.78 (≈ 1.09 µM)	0.39 (≈ 0.547 µM)	0.2 (≈ 0.281 µM)	3.13 (≈ 4.39 µM)	3.13 (≈ 4.39 µM)	1.56 (≈ 2.19 µM)	–	–	–	–	–	–	–
Cc1cn(-c2cc3c(cc2F)c(SCC2=C(C(=O)[O-])N4C(=O)C(NC(=O)/C(=N\OC(C)(C)C(=O)O)c5csc(N)n5)[C@H]4SC2)cc[n+]3C2CC2)cn1 (stereo partly drawn) [Compound I-68, 7-[(Z)-2-(2-aminothiazol-4-yl)-2-(2-carboxyprop-2-oxyimino)acetamido]-3-[1-cyclopropyl-6-fluoro-7-(4-methylimidazolyl)quinolinium-4-yl]thiomethyl-3-cephem-4-carboxylate]	–	–	–	–	–	–	–	0.78	1.56	1.56	0.2	0.78	1.56	0.78
CCN1CCN(c2cc3c(cc2F)c(SCC2=C(C(=O)[O-])N4C(=O)C(NC(=O)/C(=N\OC(C)(C)C(=O)O)c5csc(N)n5)C4SC2)cc[n+]3C)CC1 (stereo not drawn) [Compound I-55, 7-[(Z)-2-(2-aminothiazol-4-yl)-2-(2-carboxyprop-2-oxyimino)acetamido]-3-[1-methyl-6-fluoro-7-(1-ethylpiperazinyl)quinolinium-4-yl]thiomethyl-3-cephem4-carboxylate]	0.2 (≈ 0.259 µM)	1.56 (≈ 2.02 µM)	0.78 (≈ 1.01 µM)	0.2 (≈ 0.259 µM)	0.39 (≈ 0.505 µM)	0.78 (≈ 1.01 µM)	0.39 (≈ 0.505 µM)	–	–	–	–	–	–	–
CCN1CCN(c2cc3c(cc2F)c(SCC2=C(C(=O)[O-])N4C(=O)C(NC(=O)/C(=N\OC(C)(C)C(=O)O)c5csc(N)n5)C4SC2)cc[n+]3C2CC2)CC1 (stereo not drawn) [Compound I-59, 7-[(Z)-2-(2-aminothiazol-4-yl)-2-(2-carboxyprop-2-oxyimino)acetamido]-3-[1-cyclopropyl-6-fluoro-7-(1-ethylpiperazinyl)quinolinium-4-yl]thiomethyl-3-cephem-4-carboxylate]	0.39 (≈ 0.488 µM)	0.78 (≈ 0.976 µM)	1.56 (≈ 1.95 µM)	0.78 (≈ 0.976 µM)	0.78 (≈ 0.976 µM)	0.78 (≈ 0.976 µM)	0.39 (≈ 0.488 µM)	–	–	–	–	–	–	–

Further lines, results first:

MIC [1] [µg/mL]	MIC [2] [µg/mL]	MIC [3] [µg/mL]	MIC [4] [µg/mL]	MIC [5] [µg/mL]	MIC [6] [µg/mL]	MIC [7] [µg/mL]	Antibacterial Activity (MIC) [1] [µg/mL]	Antibacterial Activity (MIC) [2] [µg/mL]	Antibacterial Activity (MIC) [3] [µg/mL]	Antibacterial Activity (MIC) [4] [µg/mL]	Antibacterial Activity (MIC) [5] [µg/mL]	Antibacterial Activity (MIC) [6] [µg/mL]	Antibacterial Activity (MIC) [7] [µg/mL]	SMILES
–	–	–	–	–	–	–	0.1	0.39	0.78	0.39	1.56	3.13	1.56	C#CCO/N=C(\C(=O)NC1C(=O)N2C(C(=O)[O-])=C(CSc3cc[n+](CC)c4cc(N5CCNCC5C)c(F)cc34)CS[C@H]12)c1csc(N)n1 (stereo partly drawn) [Compound I-48, 7-[(Z)-2-(2-aminothiazol-4-yl)-2-(propargyloxyimino)acetamido]-3-[1-ethyl-6-fluoro-7-(2-methylpiperazinyl)quinolinium-4-yl]thiomethyl-3-cephem-4-carboxylate]
0.39 (≈ 0.558 µM)	0.2 (≈ 0.286 µM)	0.1 (≈ 0.143 µM)	0.025 (≈ 0.0358 µM)	6.25 (≈ 8.94 µM)	3.13 (≈ 4.48 µM)	0.1 (≈ 0.143 µM)	–	–	–	–	–	–	–	C=CCO/N=C(\C(=O)NC1C(=O)N2C(C(=O)[O-])=C(CSc3cc[n+](C)c4cc(N5CCNCC5)c(F)cc34)CS[C@H]12)c1csc(N)n1 (stereo partly drawn) [Compound I-21, 7-[(Z)-2-(2-aminothiazol-4-yl)-2-(allyloxyimino)acetamido]-3-(1-methyl-6-fluoro-7-piperazinylquinolinium-4-yl)thiomethyl-3-cephem-4-carboxylate]
–	–	–	–	–	–	–	0.39	0.78	1.56	0.39	1.56	1.56	0.78	C=CCO/N=C(\C(=O)NC1C(=O)N2C(C(=O)[O-])=C(CSc3cc[n+](CC=C)c4cc(N5CCNCC5C)c(F)cc34)CS[C@H]12)c1csc(N)n1 (stereo partly drawn) [Compound I-36, 7-[(Z)-2-(2-aminothiazol-4-yl)-2-(allyloxyimino)acetamido]-3-[1-allyl-6-fluoro-7-(2-methylpiperazinyl)quinolinium-4-yl]thiomethyl-3-cephem4-carboxylate]
–	–	–	–	–	–	–	0.39	0.39	0.78	0.39	1.56	0.78	0.39	C=CCO/N=C(\C(=O)NC1C(=O)N2C(C(=O)[O-])=C(CSc3cc[n+](CC)c4cc(N5CCNCC5C)c(F)cc34)CS[C@H]12)c1csc(N)n1 (stereo partly drawn) [Compound I-32, 7-[(Z)-2-(2-aminothiazol-4-yl)-2-(allyloxyimino)acetamido]-3-[1-ethyl-6-fluoro-7-(2-methylpiperazinyl)quinolinium-4-yl]thiomethyl-3-cephem-4-carboxylate]
0.39 (≈ 0.547 µM)	0.78 (≈ 1.09 µM)	0.78 (≈ 1.09 µM)	0.39 (≈ 0.547 µM)	3.13 (≈ 4.39 µM)	1.56 (≈ 2.19 µM)	0.39 (≈ 0.547 µM)	–	–	–	–	–	–	–	C=CCO/N=C(\C(=O)NC1C(=O)N2C(C(=O)[O-])=C(CSc3cc[n+](CC)c4cc(N5CCNCC5)c(F)cc34)CS[C@H]12)c1csc(N)n1 (stereo partly drawn) [Compound I-29, 7-[(Z)-2-(2-aminothiazol-4-yl)-2-(allyloxyimino)acetamido]-3-(1-ethyl-6-fluoro-7-piperazinylquinolinium-4-yl)thiomethyl-3-cephem-4-carboxylate]
–	–	–	–	–	–	–	0.2	0.2	0.39	0.78	1.56	1.56	0.39	C=CC[n+]1ccc(SCC2=C(C(=O)[O-])N3C(=O)C(NC(=O)/C(=N\OC)c4csc(N)n4)C3SC2)c2cc(F)c(N3CCNCC3C)cc21 (stereo not drawn) [Compound I-16, 7-[(Z)-2-(2-aminothiazol-4-yl)-2-(methoxyimino)acetamido]-3-[1-allyl-6-fluoro-7-(2-methylpiperazinyl)quinolinium-4-yl]thiomethyl 3-cephem-4-carboxylate]

Source: patent US5663331A, “Cephalosporin compounds” (Il-Dong Pharm. Co., Ltd., priority 1992, dated 1997)
